Results taken from publication PMC5434891, “Tetramethylpyrazine blocks TFAM degradation and up-regulates mitochondrial DNA copy number by interacting with TFAM” (Bioscience Reports, 2017).

Assays:
[1] = biological target: T1, Lon (human mitochondrial Lon protease) (Homo sapiens, UniProt P36776); assay: ADP-Glo ATPase assay with purified Lon; about […] activity left at […]; assay type: biochemical
T1 construct: gene LONP1
T1 sequence (P36776 68-959): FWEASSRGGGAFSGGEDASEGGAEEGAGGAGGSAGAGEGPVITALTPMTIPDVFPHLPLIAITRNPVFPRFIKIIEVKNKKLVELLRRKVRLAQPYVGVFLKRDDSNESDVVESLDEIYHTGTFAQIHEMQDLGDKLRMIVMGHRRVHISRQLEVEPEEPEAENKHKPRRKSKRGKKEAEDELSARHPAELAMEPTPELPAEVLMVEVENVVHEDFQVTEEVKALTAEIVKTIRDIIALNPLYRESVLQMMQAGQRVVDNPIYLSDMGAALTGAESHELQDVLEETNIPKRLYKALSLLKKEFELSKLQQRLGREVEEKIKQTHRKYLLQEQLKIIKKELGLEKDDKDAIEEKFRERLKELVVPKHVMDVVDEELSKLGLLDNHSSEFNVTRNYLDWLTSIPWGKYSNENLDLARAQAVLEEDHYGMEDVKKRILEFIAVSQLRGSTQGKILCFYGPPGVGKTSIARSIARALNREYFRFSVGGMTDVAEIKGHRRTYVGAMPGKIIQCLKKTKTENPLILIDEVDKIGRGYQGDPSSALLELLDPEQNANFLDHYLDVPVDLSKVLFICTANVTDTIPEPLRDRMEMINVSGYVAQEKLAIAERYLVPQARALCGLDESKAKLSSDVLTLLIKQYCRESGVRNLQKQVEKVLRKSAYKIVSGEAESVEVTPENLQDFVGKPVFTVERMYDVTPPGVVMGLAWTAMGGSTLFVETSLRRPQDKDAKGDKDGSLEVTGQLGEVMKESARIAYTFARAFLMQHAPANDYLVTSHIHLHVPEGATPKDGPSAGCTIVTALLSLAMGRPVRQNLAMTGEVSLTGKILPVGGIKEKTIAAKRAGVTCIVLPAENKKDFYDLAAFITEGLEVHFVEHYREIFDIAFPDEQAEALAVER

[2] = biological target: T2, TFAM (mitochondrial transcription factor A) (Homo sapiens, UniProt Q00059); assay: protection of purified TFAM from degradation by purified Lon (Western blot); binding itself shown only with the biotinylated conjugate; assay type: biochemical
T2 sequence (Q00059 43-246): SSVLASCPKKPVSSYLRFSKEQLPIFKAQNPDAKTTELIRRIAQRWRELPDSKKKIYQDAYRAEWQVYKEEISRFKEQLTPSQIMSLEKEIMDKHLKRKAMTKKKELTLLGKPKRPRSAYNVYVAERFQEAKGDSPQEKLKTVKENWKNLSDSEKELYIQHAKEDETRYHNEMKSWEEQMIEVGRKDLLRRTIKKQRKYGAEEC
T2 sequence (P36776 68-959 partner): T1 sequence (P36776 68-959)

[3] = biological target: T3, TFAM (mitochondrial transcription factor A) (Homo sapiens, UniProt Q00059); assay: streptavidin-sepharose pull-down from cell extracts, immunoblot ([…]); assay type: cell-based
T3 construct: endogenous TFAM in HeLa ρ+ and HCT116 cell extracts
T3 sequence (Q00059 43-246): T2 sequence (Q00059 43-246)

Compound: CC1(C)CC[C@]2(C(=O)O)CC[C@]3(C)[C@H](C(=O)C=C4[C@@]5(C)C=C(C#N)C(=O)C(C)(C)[C@@H]5CC[C@]43C)[C@@H]2C1 [CDDO, 2-cyano-3,12-dioxooleana-1,9(11)-dien-28-oic acid]
- ADP-Glo ATPase assay with purified Lon; about 10% activity left at 200 μM [1]: CDDO inhibited the ATPase activity of Lon in a dose-dependent manner

Compound: Cc1nc(C)c(C)nc1C [TMP, 2,3,5,6-tetramethylpyrazine]
- protection of purified TFAM from degradation by purified Lon (Western blot); bin [2]: ~ 20 mM

Compound: Cc1nc(C)c(COC(=O)CCCC[C@@H]2SC[C@@H]3NC(=O)N[C@@H]32)nc1C [biotinylated TMP]
- streptavidin-sepharose pull-down from cell extracts, immunoblot (10 μM) [3]: TFAM was specifically pulled down only in complexes containing biotinylated-TMP and SA-sepharose
